# According to publication PMC7732027 (Bioorganic & medicinal chemistry letters, 2019):
# Tested on: influenza A virus PR8-GLuc (H1N1) strain
# Type: cell-based
row,SMILES,decrease of potency versus Pimodivir [times]
1,Cl.O=C(O)[C@H]1C2CCC(C3CC32)[C@@H]1Nc1nc(-c2c[nH]c3ncc(F)cc23)ncc1F (some centres unmarked) [13b],12
2,Cl.O=C(O)C12CC3CC(CC(Nc4nc(-c5c[nH]c6ncc(F)cc56)ncc4F)(C3)C1)C2 [13d],230
